The text below walks through data of a flash point compilation (Sun et al. 2020).

Turning to `CC(C)(C)CC(C)(C)C` [2,2,4,4-Tetramethylpentane], the flash point was 3 °C.

On to `CC(C)(C)CCC(C)(C)C` [2,2,5,5-Tetramethylhexane], for which the flash point is 31 °C.

Molecule `CC(C)CCC(C)(C)C` [2,2,5-Trimethylhexane] gave a flash point of 13 °C.

In turn, `CCC(C)C(C)(C)C(C)C` (centres undefined) [2,3,3,4-Tetramethylhexane] returned a flash point of 31 °C.

In the case of `CCC(C)(C)C(C)C` [2,3,3-Trimethylpentane], the flash point was -0 °C.

As for `CCC(C)C(C)C(C)C` (centres undefined) [2,3,4-Trimethylhexane], the flash point turned out to be 15 °C.

`CCC(C)CC(C)C(C)C` (centres undefined) [2,3,5-Trimethylheptane] showed a flash point of 31 °C.

The molecule `CC(C)CC(C)C(C)C` (centres undefined) [2,3,5-Trimethylhexane] had a flash point of 15 °C.

With `CCC(C)(CC)C(C)C` [2,3-Dimethyl-3-ethylpentane], the flash point turned out to be 15 °C.

In turn, `CCCC(C)C(C)C` (centres undefined) [2,3-Dimethylhexane] showed a flash point of 10 °C.

Consider `CCC(C)C(C)C` (centres undefined) [2,3-Dimethylpentane], for which the flash point was -15 °C.

With `CCC(C)C(C)CC(C)C` (centres undefined) [2,4,5-Trimethylheptane], the flash point was determined as 31 °C.

`CCC(C)CCCC(C)C` (centres undefined) [2,6-Dimethyloctane]: the flash point worked out at 41 °C.

`CC(C)C` [2-Methylpropane] displayed a flash point of -87 °C.

The molecule `CCC(C)C(C)(C)CC` (centres undefined) [3,3,4-Trimethylhexane] gave a flash point of 15 °C.

`CCC(C)(C)CC` [3,3-Dimethylpentane] registered a flash point of -19 °C.

In turn, `CCC(C)C(C)C(C)CC` (centres undefined) [3,4,5-Trimethylheptane] returned a flash point of 31 °C.

With `CCCC(C)C(C)CC` (centres undefined) [3,4-Dimethylheptane], the flash point came to 15 °C.

In turn, `CCCC(CC)C(C)(C)C` (centres undefined) [3-Ethyl-2,2-dimethylhexane] came in with a flash point of 38 °C.

`CCC(C)(C(C)C)C(C)C` [3-Ethyl-2,3,4-trimethylpentane] gave a flash point of 31 °C.

`CCC(CC)CC` [3-Ethylpentane] displayed a flash point of -18 °C.

`CCCC(CC)C(C)CC` (centres undefined) [4-Ethyl-3-methylheptane] had a flash point of 41 °C.

Molecule `CCCCC(CC)CCC` (centres undefined) [4-Ethyloctane] yielded a flash point of 41 °C.

As to `CCCCCCCCCCCCCC` [Tetradecane], the flash point was 99 °C.

The source holds these as a separate data set.
In the case of `CCCCCCCCCCCCCC` [Tetradecane], the flash point stood at 109.2 °C.

This is another data set of the same source.
`C=C[CH2][Ge]([CH3])([CH3])[CH3]` [ALLYLTRIMETHYLGERMANE] had a flash point of 1.00 °C.

The molecule `[CH3][Ge]([CH3])([CH2]Cl)[CH2]Cl` [BIS(CHLOROMETHYL)DIMETHYLGERMANE] displayed a flash point of 51.00 °C.

In the case of `CCC[CH2][Ge]([Cl])([Cl])[CH2]CCC` [DI-n-BUTYLDICHLOROGERMANE], the flash point amounted to 107.00 °C.

Molecule `[Cl][Ge]([Cl])([c]1ccccc1)[c]1ccccc1` [DIPHENYLDICHLOROGERMANE] returned a flash point of 160.00 °C.

`c1cc[c]([GeH2][c]2ccccc2)cc1` [DIPHENYLGERMANE]: the flash point was determined as 104.00 °C.

This is another data set of the same source.
Consider `CC(C)(C)CCCl` [1-Chloro-3,3-dimethylbutane], for which the flash point amounted to 19.1 °C.

The molecule `CC(C)CCCl` [1-Chloro-3-methylbutane] displayed a flash point of 16.1 °C.

Take `CCC(C)CCCCCl` (centres undefined) [1-Chloro-5-methylheptane]: the flash point worked out at 52.6 °C.

On to `CCCCCCCCCCCl` [1-Chlorodecane], for which the flash point is 83.1 °C.

`CCCCCCCCCCCCCl` [1-Chlorododecane] displayed a flash point of 104.6 °C.

`CCCCCCCCCCCCCCCCCCl` [1-Chloroheptadecane]: the flash point was 145.2 °C.

Turning to `CCCCCCCCCCCCCCCCCCCl` [1-Chlorooctadecane], the flash point turned out to be 184.1 °C.

On to `CCCCCCCCCCCCCCCl` [1-Chlorotetradecane], for which the flash point turned out to be 130.1 °C.

As for `CC(C)(C)C(C)(C)Cl` [2-Chloro-2,3,3-trimethylbutane], the flash point is 24.4 °C.

The molecule `CC(C)C(C)(C)Cl` [2-Chloro-2,3-dimethylbutane] had a flash point of 15.0 °C.

Molecule `CC(C)CC(C)(C)Cl` [2-Chloro-2,4-dimethylpentane] had a flash point of 29.8 °C.

Molecule `CC(C)CC(C)Cl` (centres undefined) [2-Chloro-4-methylpentane] registered a flash point of 21 °C.

With `CC(C)CCC(C)Cl` (centres undefined) [2-Chloro-5-methylhexane], the flash point is 35.2 °C.

Molecule `CCCCCCCCCCC(C)Cl` (centres undefined) [2-Chlorododecane] gave a flash point of 99.6 °C.

Consider `CCCCCC(C)Cl` (centres undefined) [2-Chloroheptane], for which the flash point stood at 39.2 °C.

`CCC(Cl)C(C)C` (centres undefined) [3-Chloro-2-methylpentane] came in with a flash point of 21 °C.

Regarding `CCCCC(Cl)(CC)CC` [3-Chloro-3-ethylheptane], the flash point amounted to 60.0 °C.

Take `CCCC(C)(Cl)CC` (centres undefined) [3-Chloro-3-methylhexane]: the flash point came to 33.6 °C.

With `CCCCCC(C)(Cl)CC` (centres undefined) [3-Chloro-3-methyloctane], the flash point is 60.0 °C.

As for `CCCCCC(Cl)CC` (centres undefined) [3-Chlorooctane], the flash point came to 52.6 °C.

Regarding `CCC(Cl)CC` [3-Chloropentane], the flash point was 10 °C.

`CCCC(Cl)CCC` [4-Chloroheptane] had a flash point of 39.2 °C.

Molecule `CCCCCCCC(Cl)CCCC` (centres undefined) [5-Chlorododecane] returned a flash point of 99.5 °C.

In the case of `CCC(C)(Cl)CCCC(C)C` (centres undefined) [6-Chloro-2,6-dimethyloctane], the flash point worked out at 69 °C.

The source holds these as a separate data set.
As to `CC(C)[O-].CC(C)[O-].CCOC(=O)CC(C)=O.[Al+2]` [ALUMINUM DIISOPROPOXIDE ETHYLACETOACETATE], the flash point came to 50.00 °C.

For the molecule `CCCC[O-].CCCC[O-].CCCC[O-].[Sb+3]` [ANTIMONY(III) n-BUTOXIDE], the flash point came to 68.00 °C.

`C1CCC(PC2CCCCC2)CC1` [DICYCLOHEXYLPHOSPHINE]: the flash point was found to be 110.00 °C.

As to `[CH3][Al]([CH3])[Cl]` [DIMETHYLALUMINUM CHLORIDE], the flash point is -18.00 °C.

The molecule `CC(C)[O][Al]([CH3])[CH3]` [DIMETHYLISOPROPOXYALUMINUM] gave a flash point of 5.00 °C.

As for `CCCCN(CCCC)C(=S)[S-].CCCCN(CCCC)C(=S)[S-].[Ni+2]` [NICKEL DI-n-BUTYLDITHIOCARBAMATE], the flash point stood at 260.00 °C.

In turn, `CCCC[O-].CCCC[O-].CCCC[O-].CCCC[O-].CCCC[O-].[Nb+5]` [NIOBIUM(V) n-BUTOXIDE] came in with a flash point of 90.00 °C.

Regarding `CC(C)(C)CCCCCC(=O)[O-].[Ag+]` [SILVER NEODECANOATE], the flash point worked out at 102.00 °C.

For `CCCC[O-].CCCC[O-].CCCC[O-].CCCC[O-].CCCC[O-].[Ta+5]` [TANTALUM(V) n-BUTOXIDE], the flash point was 66.00 °C.

`CCCCCCCCCCCCCC[P+](CCCCCC)(CCCCCC)CCCCCC.[Cl-]` [TETRADECYL(TRIHEXYL)PHOSPHONIUM CHLORIDE]: the flash point turned out to be 118.00 °C.

`CC(C)[O-].CC(C)[O-].CC(C)[O-].[Cl-].[Ti+4]` [TITANIUM CHLORIDE TRIISOPROPOXIDE] showed a flash point of 22.00 °C.

As to `CC(C)[O-].CC(C)[O-].CC(C)[O-].CC(C)[O-].[Ti+4]` [TITANIUM ISOPROPOXIDE], the flash point was 25.00 °C.

For the molecule `CC[N-]CC.CC[N-]CC.CC[N-]CC.CC[N-]CC.[Ti+4]` [TITANIUM TETRAKIS(DIETHYLAMIDE)], the flash point turned out to be 37.00 °C.

`CC[N-]C.CC[N-]C.CC[N-]C.CC[N-]C.[Ti+4]` [TITANIUM TETRAKIS(ETHYLMETHYLAMIDE)] displayed a flash point of 10.00 °C.

`CCC[O-].CCC[O-].CCC[O-].CCC[O-].[Ti+4]` [TITANIUM n-PROPOXIDE] had a flash point of 45.00 °C.

Molecule `[CH3][Ga]([CH3])[CH3]` [TRIMETHYLGALLIUM] returned a flash point of -1.00 °C.

`c1ccc(P(c2ccccc2)c2ccccc2)cc1` [TRIPHENYLPHOSPHINE]: the flash point is 182.00 °C.

In the case of `C[N](C)[Ga]([N](C)C)[N](C)C` [TRIS(DIMETHYLAMINO)GALLIUM], the flash point turned out to be 56.00 °C.

The source holds these as a separate data set.
As to `C=[C](OCC)[Sn]([CH2]CCC)([CH2]CCC)[CH2]CCC` [1-ETHOXYVINYLTRI-n-BUTYLTIN], the flash point is 113.00 °C.

Regarding `CCC[CH2][Sn]([CH2]CCC)([CH2]CCC)[c]1cccs1` [2-THIENYLTRI-n-BUTYLTIN], the flash point was found to be 106.00 °C.

In the case of `C=C[CH2][Sn]([CH2]CCC)([CH2]CCC)[CH2]CCC` [ALLYLTRI-n-BUTYLTIN], the flash point stood at 103.00 °C.

Regarding `C[Si](C)(C)[N]([Sn][N]([Si](C)(C)C)[Si](C)(C)C)[Si](C)(C)C` [BIS[BIS(TRIMETHYLSILYL)AMINO]TIN(II)], the flash point was determined as 56.00 °C.

`[CH3][Sn]([CH3])([CH3])[CH2]Cl` [CHLOROMETHYLTRIMETHYLTIN] came in with a flash point of 39.00 °C.

On to `CCC[CH2][Sn]([Cl])([Cl])[CH2]CCC` [DI-n-BUTYLDICHLOROTIN], for which the flash point was 168.00 °C.

`CCC[CH2][Sn]([CH2]CCC)([CH2]CCC)[N](C)C` [DIMETHYLAMINOTRI-n-BUTYLTIN] yielded a flash point of 115.00 °C.

`CCCCCCC[CH2][Sn]([Cl])([Cl])[CH2]CCCCCCC` [DIOCTYLDICHLOROTIN] returned a flash point of 204.00 °C.

In turn, `C=[CH][Sn]([Cl])([Cl])[CH]=C` [DIVINYLDICHLOROTIN] had a flash point of 204.00 °C.

Regarding `CCC[CH2][Sn]([C]#Cc1ccccc1)([CH2]CCC)[CH2]CCC` [PHENYLETHYNYLTRI-n-BUTYLTIN], the flash point worked out at 113.00 °C.

Regarding `CCC[CH2][Sn]([CH2]CCC)([CH2]CCC)[S]c1ccccc1` [PHENYLTHIOTRI-n-BUTYLTIN], the flash point is 104.00 °C.

With `C=C[CH2][Sn]([CH2]C=C)([CH2]C=C)[CH2]C=C` [TETRAALLYLTIN], the flash point turned out to be 75.00 °C.

`C[CH2][Sn]([CH2]C)([CH2]C)[CH2]C` [TETRAETHYLTIN]: the flash point was found to be 53.00 °C.

With `CC[N](CC)[Sn]([N](CC)CC)([N](CC)CC)[N](CC)CC` [TETRAKIS(DIETHYLAMINO)TIN], the flash point was 39.00 °C.

`C=[CH][Sn]([CH]=C)([CH]=C)[CH]=C` [TETRAVINYLTIN] had a flash point of 40.00 °C.

`CCC[CH2][Sn]([CH2]CCC)([CH2]CCC)[O]C` [TRI-n-BUTYLMETHOXYTIN] yielded a flash point of 98.00 °C.

With `[Cl][Sn]([c]1ccccc1)([c]1ccccc1)[c]1ccccc1` [TRIPHENYLCHLOROTIN], the flash point amounted to 70.00 °C.
